Measurements: patent US20080294071A1, “Assay Method” (priority 2004, published 2008)

Assays:
rats [1] = experiment: Beam walking test; type: in vivo, Male Sprague Dawley rats
Procedure: (§1) Male Sprague Dawley rats 200-300 g (Charles River, Margate, U.K.) were housed in group of five per cage under a 12 h light/dark cycle with food and water available ad libitum. Each experiment was carried out with groups of at minimum 7 rats. All procedures in this study were performed in accordance with the Home Office Animals (Scientific Procedures) Act 1986 and accordingly with our Project License, after the experiment, animals were sacrificed by schedule 1 method.
The Beam walking apparatus consists of a 1.5 m long beam with a 2.5×2.5 cm square cross section, elevated 75 cm above the floor. The test was performed in dim light conditions (18 lux). A light source (520 lux) was placed at the start-end of the beam while a dark box at the other side (Feeney D M et al, Amphetamine, Haloperidol, and experience interact to affect rate of recovery after motor cortex injury, Science 217, 1982). Rats were habituated to the dim light condition for at least 1 hour before the beginning of the training sessions. Rats were trained to cross the beam over 2 days, twice a day. The first day, rodents were trained to cross starting from last quarter and half of the beam until the dark box, in the first and second session, respectively. The following day rodents were trained to cross the entire length of the beam twice. At least 2 hours were left between each daily session. On the day of test a baseline recording was registered before compound administration and rats were selected based on their ability to cross the beam with no major impairments. Therefore, only rodents that crossed the beam in less than 10 seconds and showing two or less foot slips were used for the assessment of drug-induced motor impairments. Then rats were tested for their ability to cross the beam at various time points after drug injection. The time taken to cross and the number of foot slips produced while a rat was crossing the beam were counted. […] No movement or freezing behaviours were also scored with the maximum value.
(§2) In the locomotor activity task, total counts are the sum of horizontal and vertical movements (photo beam breaks) in 30 minutes recording. For PCP vertical and horizontal activity are analysed separately. Data were expressed as the arithmetic mean ±SEM and analysed by ANOVA. In the beam walking test, the time to cross the beam (seconds) and the number of foot slips were expressed as mean ±SEM and analysed by ANOVA and Mann Whitney U test, respectively.

[2] = clinical literature; cited from earlier work
rats [3] = experiment: Locomotor activity test; type: in vivo, Male Sprague Dawley rats
Procedure: as §1
The spontaneous locomotor activity of rats in a novel environment was monitored for 30 min in a 35×20 cm Perspex chamber. The cage was equipped with two series photocells located at 2 and 15 cm above the floor (San Diego Instruments, CA, USA). To measure drug-induced decrease locomotion such as morphine and gabapentin, at a pre-defined time post drug administration, each animal was placed in the centre of the cage. To measure drug-induced increase in locomotion such as phencyclidine (PCP) rats were placed in the cage at least 30 min before recording. total activity (ambulation and rearing) was monitored every 5 min for 30 min.
as §2

[4] = 1 and 10 mg/kg ip, 1 hr post injection

## NCC1(CC(=O)O)CCCCC1 [Gabapentin]
Rats [1]; 100 mg/kg in rats
  number of foot slips, effect: robust increase
Rats [1]; 30, 100 and 300 mg/kg PO, up to 6 hrs, p<0.05
  time to cross the beam, effect: only at 3 and 4 hour post administration the highest dose significantly increase the time to cross
Rats [1]; PO
  duration of effect on foot slips (lasting till): 4 h
  time of peak effect on foot slips: 2 h
Rats [1]; PO, 30, 100 and 300 mg/kg tested, dose dependent
  lowest dose increasing number of foot slips: 100 mg/kg
Rats [1]; PO, 2 hours post dose
  rats that fell off the beam: 25%
Rats [1]; PO, 3 hours post dose
  rats that fell off the beam: 25%
Rats [1]; PO, dose not stated, 1 hour post dose, water treated 0.6±0.4
  number of foot slips: 1.5±0.5
Rats [1]; PO, dose not stated, 2 hours post dose, vehicle 0.2±0.2, p<0.01
  number of foot slips (peak effect): 2.9±0.5
[2]
  adverse events in humans: dizziness and somnolence
Rats [3]; 100 mg/kg PO (highest dose), one hour post dose
  decrease in locomotor activity (of vehicle-treated group): 27%
Rats [3]; 100 mg/kg in rats
  locomotor activity, effect: small (albeit statistically significant) decrease
Rats [3]; 10, 30 and 100 mg/kg PO, one hour post dose
  locomotor activity, effect across doses: decreased significantly the locomotor activity of rats at the highest dose only
Rats [3]; gabapentin highest dose 100 mg/kg PO, one hour post dose
  total counts in 30 min: 262±25 counts

## c1ccc(C2(N3CCCCC3)CCCCC2)cc1 [PCP, phencyclidine]
Rats [1]; 1 mg/kg ip, 2 hours post dose, p<0.05
  number of foot slips, effect: slight but significant increase
Rats [1]; 10 mg/kg ip, 30 min post dose
  rodents that could not be placed on the beam (lack of paw coordination): 100%
Rats [1]; 10 mg/kg ip, 1 hour post dose
  rodents that could not be placed on the beam (lack of paw coordination): 100%
Rats [1]; 10 mg/kg ip, 2 hours post dose
  animals that did cross the beam: 80%
Rats [1]; 10 mg/kg ip, 2 hours post dose, animals that crossed
  number of foot slips: ≥ 5
Rats [1]; 10 mg/kg ip, 2 hours post dose, p<0.01
  time taken to cross the beam vs controls: significantly different from controls
Rats [1]; 10 mg/kg ip, 4 hrs post dose
  recovery: almost all rats recovered
Rats [1]; 0.1-1-10 mg/kg ip
  time taken to cross the beam, effect across doses: increased the time taken to cross the beam at the higher dose only
Rats [1]; lower dose (0.1 mg/kg ip)
  number of foot slips, effect: no effect
[2]
  adverse events in humans: induce ataxia
Rats [3]; 10 mg/kg ip
  observed signs: signs of ataxia
Rats [3]; 10 mg/kg, standard protocol for drug-induced decrease in movement, vehicle 186±17, p<0.01, data not shown
  vertical activity (rearing): 30±9
Rats [3]; [4]
  total activity (vertical+horizontal) vs vehicle-treated group: did not change significantly
  vertical movement: only the lower dose significantly increased the vertical movement
Rats [3]; 1 and 10 mg/kg ip, 1 hr post injection, p<0.05
  horizontal activity: increased the horizontal activity in a dose dependent manner

## CN1CC[C@]23c4c5ccc(O)c4O[C@H]2[C@@H](O)C=C[C@H]3[C@H]1C5.O=S(=O)(O)O [Morphine sulphate]
Rats [1]; 3 mg/kg SC, any time point (30 min, 1, 2, 3 h)
  locomotion in the beam walking: did not modify the locomotion
Rats [1]; 10 mg/kg SC, 30 min post dose, controls 4.1±0.7, significant
  time to cross the beam: 12.6 ± 0.7 s
Rats [1]; 10 mg/kg SC, 30 minutes post dose, vehicle 0.1±0.1, not statistically different
  number of foot slips: 1.0±0.6
Rats [1]; 10 mg/kg SC, 1 hr post dose, vehicle 0.1±0.1, not statistically different
  number of foot slips: 1.0±0.6
Rats [1]; 3 and 10 mg/kg SC
  rats falling off the beam: No rats fell off the beam
Rats [1]; SC
  MED (minimal effective dose) in beam walking: 10 mg/kg
[2]
  adverse events in humans: somnolence, sedation and addiction
Rats [3]; 10 mg/kg SC, 30 min post dose, vehicle 424±23, p<0.01
  total counts (horizontal + vertical) in 30 min: 28±6 counts
Rats [3]; morphine 3 mg/kg, comparator in gabapentin study
  total counts in 30 min: 138±26 counts
